From patent publication US20090203050A1 (The Regents of the University of California, priority 2005, published 2009)
“Also recorded” adds a separate entry of the source.

Experiments:
[1] = system: Ramos wt cells; test: DNA fragmentation (PI) apoptosis assay, Ramos wt; assay type: cell-based, human
[2] = system: Daudi wt cells; test: DNA fragmentation (PI) apoptosis assay, Daudi wt; assay type: cell-based, human
[3] = system: Ramos-RR1; test: DNA fragmentation (PI) apoptosis assay, Ramos-RR1; conditions: for resistance of clone compared with wt cells / resistance of clone compared with wt cells, value in parentheses / apoptosis, drug alone: 18 h; for apoptosis, drug after DHMEQ pre-treatment: DHMEQ 20 μg/ml 2 h, then highest drug concentration 18 h; for apoptosis, drug alone: highest drug concentration
Protocol: (§1) Percentage of apoptotic cells was determined by evaluation of propidium iodide (PI) stained preparations of cells using an EpicXL flow-cytometer. Cellular debris was excluded from analysis by raising the forward scatter threshold, and DNA content of the intact nuclei was recorded on a logarithmic scale (Nicoletti, I. et al., J. Immunol. Methods, 139:271-9 (1991)). Percent apoptosis is represented as percentage of hypodiploid cells accumulated at sub-G0 phase of cell cycle.
(§2) Cells were left either untreated or pre-treated with DHMEQ (36), bortezomib (Goy, A. et al., Clin. Lymphoma, 4:230-7 (2004)) and PD098059 (Alessi, D. et al., J. Biol. Chem., 270:27489-94 (1995)). Escalating concentrations of various drugs were then added and the percentage of apoptosis was measured.

[4] = system: Daudi-RR1; test: DNA fragmentation (PI) apoptosis assay, Daudi-RR1; conditions: for resistance of clone compared with wt cells / resistance of clone compared with wt cells, value in parentheses / apoptosis, drug alone: 18 h; for apoptosis, drug after DHMEQ pre-treatment: DHMEQ 20 μg/ml 2 h, then highest drug concentration 18 h; for apoptosis, drug alone: highest drug concentration
Protocol: as §1, §2

[5] = system: RR clones; test: DNA fragmentation apoptosis assay, RR clones (pooled statements); assay type: cell-based, human; conditions: drugs e.g. Paclitaxel, Vincristine, VP-16, CDDP, Adriamycin
Protocol: Thus, we examined if such sensitizing agents can reverse the resistance in the RR clones.
as §1, §2

[6] = system: 2F7, Ramos and Daudi wild type and RR clones; test: TRAIL-mediated apoptosis in B-NHL cell lines and RR clones (DNA fragmentation); assay type: cell-based, human; conditions: for sensitization to TRAIL-induced apoptosis: inhibitor pretreatment 2 h, then TRAIL 18 h, rituximab-sensitive and -resistant cells
Source text: Patients with B-NHL respond initially to conventional chemotherapy and/or to immunotherapy with rituximab (alone or in combination with chemotherapy). However, patients develop resistance to these modalities and novel approaches are needed. TRAIL is a cytotoxic molecule that exerts selective anti-tumor cytotoxic activity with minimal toxicity to normal tissues. Further, TRAIL or agonist monoclonal antibody (mAb) to TRAIL receptors, DR4 and DR5, are currently being tested clinically. The present study investigated the sensitivity of B-NHL cell lines to TRAIL-mediated apoptosis using the AIDS-related NHL (ARL) B-cell line, 2F7, and the B-NHL cell lines, Ramos and Daudi. Also, to recapitulate various aspects of acquired rituximab-resistance, we have generated rituximab-resistant (RR) clones from the parental wild type (wt) cells. […] We then examined means to reverse […] resistance. We and others have reported that inhibition of NFκB activity can sensitize TRAIL-resistant tumor cells to TRAIL-induced apoptosis. […] Both the rituximab-sensitive and rituximab-resistant tumor cells were sensitized by these inhibitors, though higher concentrations were required for sensitization of the RR clones. […] Based on the findings, patients with resistant B-NHL can be treated with combination of TRAIL/anti-DR4 or DR5 mAb and NFκB inhibitors. Alternatively, these patients can be treated with agents that up-regulate TRAIL expression on host effectors (e.g., T cells, NK cells) in combination with NFκB inhibitors.

[7] = system: 2F7RR1 clone; test: Chemotherapeutic drug-induced apoptosis in 2F7RR1; assay type: cell-based
Source text: (§3) Accordingly, we examined whether inhibition of Bcl-2 in 2F7RR1 can reverse chemoresistance. Since Bcl-2 is under the transcriptional regulation of NFκB, we examined the effect of the NF-κB inhibitors Bortezomib and DHMEQ (Kikuchi, et al., Cancer Research, 63:107 (2003)).
(§4) The mechanism by which B-NHL patients resist treatment is not known. […] We examined the effect of various chemical inhibitors of this signaling pathway on chemosensitization.

[8] = system: p38MAPK/NF-κB/YY1/STAT3 signaling pathways, Bcl-2; test: Molecular analysis of signaling in 2F7RR1; assay type: cell-based; conditions: 2F7-RR1
Source text: as §3, §4

[9] = system: Ramos and Daudi; conditions: ERK1/2 pathway inhibitors; cited from earlier work
[10] = system: NF-κB and AP-1 DBA; test: EMSA in RR clones; assay type: cell-based, human
Protocol: FIG. 8. […] A. Total cell lysates (40 μg) were subjected to western blot analysis using phospho-specific Abs for various components of the NF-κB and ERK1/2 pathways. B. The kinase activity of the IKK complex using IκB-α peptide (aa 1-50 including S^32/36) and ERK1/2 using MAPK kinase substrates 4 (aa 172-192) using immune-complex kinase assay. C. […] 10 μg of nuclear lysates were subjected to EMSA (n=2) (19, 20).
The DBAs were evaluated using biotin-labeled oligonucleotide AP-1 (5′-[…]-3′) (Lee, W et al., Cell, 49:741-52 (1987)) and NF-κB (5′-[…] […]-3′) probes (Harada, H. et al., Mol. Cell Biol., 14:1500-9 (1994)) using EMSA kit (Panomics, Inc., Redwood City, Calif.) according to manufacturer's instructions. 10 μg of nuclear extracts were subjected to […] 5% PAGE and developed (Jazirehi, A. et al., Cancer Research, 64:7117-26 (2004); Jazirehi, A. et al., Cancer Research, 65:264-76 (2005)).
Next, alterations in the DBA of NF-κB and AP-1 in the clones were examined.

[11] = wt Ramos, 2MAM-A3 15 μg/ml 7 h, paclitaxel 10 nM 18 h
[12] = Ramos-RR1, 2MAM-A3 35 μg/ml 7 h, paclitaxel 10 nM 18 h

Row | Molecule | sensitization of RR clones to various chemotherapeutic drugs [5] | resistance of clone compared with wt cells ([3]; Ramos-RR1) [folds] | resistance of clone compared with wt cells, value in parentheses ([3]; Ramos-RR1) [%] | apoptosis, drug after DHMEQ pre-treatment ([3]; Ramos-RR1) [%] | apoptosis, drug alone ([3]; Ramos-RR1) [%] | resistance of clone compared with wt cells ([4]; Daudi-RR1) [folds] | resistance of clone compared with wt cells, value in parentheses ([4]; Daudi-RR1) [%] | apoptosis, drug after DHMEQ pre-treatment ([4]; Daudi-RR1) [%] | apoptosis, drug alone ([4]; Daudi-RR1) [%] | further results
1 | CCCC[C@H]1C(=O)O[C@H](C)[C@H](NC(=O)c2cccc(NC=O)c2OC)C(=O)O[C@@H](C)[C@@H]1OC(=O)CC(C)C [2MAM-A3, 2-methoxyantimycin-A3] | sensitized |  |  |  |  |  |  |  |  | apoptosis, paclitaxel after 2MAM-A3 pre-treatment [1, 11]: 26.7±2.2%; augmentation of paclitaxel cytotoxicity [1, 11]: 1.96 folds; augmentation of paclitaxel cytotoxicity ([2]; 2MAM-A3 15 μg/ml 7 h, paclitaxel 10 nM 18 h): 1.98 fold; apoptosis, paclitaxel after 2MAM-A3 pre-treatment [3, 12]: 39.7±2.4%; augmentation of paclitaxel cytotoxicity [3, 12]: 4.71 folds; augmentation of paclitaxel cytotoxicity ([4]; Daudi-RR1, 2MAM-A3 35 μg/ml 7 h, paclitaxel 10 nM 18 h): 3.2 folds
2 | COc1cccc2c1C(=O)c1c(O)c3c(c(O)c1C2=O)C[C@@](O)(C(=O)CO)C[C@@H]3O[C@H]1C[C@H](N)[C@H](O)[C@H](C)O1 [ADR] |  | 2.3 | 158 | 32.4±2.9 | 14.3±3.3 | 1.94 | 149 | 40.5±3.1 | 12.4±2.5 | 
3 | CC(C)(C)c1ccc(S(=O)(=O)/C=C/C#N)cc1 [Bay 11-7085] | sensitized |  |  |  |  |  |  |  |  | sensitization to TRAIL-induced apoptosis [6]: significant augmentation of apoptosis and synergy was achieved
4 | CC(C)C[C@H](NC(=O)[C@H](Cc1ccccc1)NC(=O)c1cnccn1)B(O)O [Bortezomib] | sensitized |  |  |  |  |  |  |  |  | enhanced cytotoxicity of drugs by inhibitor [3]: 1.8-5.1 folds; enhanced cytotoxicity of drugs by inhibitor [4]: 1.7-3.3 folds; sensitization to TRAIL-induced apoptosis [6]: significant augmentation of apoptosis and synergy was achieved; chemosensitization to drug-induced apoptosis (taxol, vincristine, ADR, CDDP, VP16) [7]: reversal of resistance; also recorded: significantly sensitized; effect on NF-kB, YY1 and Bcl-2 expression [8]: inhibition of NF-kB, YY1 and downregulated Bcl-2 expression
5 | N.N.[Cl][Pt][Cl] [CDDP] |  | 1.41 | 120 | 61.2±2.1 | 19.0±0.7 | 1.95 | 149 | 36.6±0.9 | 25.7±3.1 | 
6 | O=C1Nc2ccc(I)cc2/C1=C/c1cc(Br)c(O)c(Br)c1 [GW 5074] |  |  |  |  |  |  |  |  |  | sensitization to drug-induced apoptosis [9]: also sensitize the cells
7 | COc1cccc(-c2cc(=O)c3ccccc3o2)c1N [PD098059, [2-(2′-amino-3′-methoxyphenyl)-oxanaphthalen-4-one]] | sensitized |  |  |  |  |  |  |  |  | enhanced cytotoxicity of drugs by inhibitor [3]: 1.8-3.1 folds; enhanced cytotoxicity of drugs by inhibitor [4]: 1.5-2.7 folds; NF-κB and AP-1 DBA (EMSA) [10]: preferentially reduced; sensitization to drug-induced apoptosis [9]: also sensitize the cells
8 | C[S+]([O-])c1ccc(-c2nc(-c3ccncc3)c(-c3ccc(F)cc3)[nH]2)cc1 (stereo not shown) [SB 203580] | sensitized |  |  |  |  |  |  |  |  | 
9 | N#CC(=C(/N)Sc1ccccc1N)/C(C#N)=C(/N)Sc1ccccc1N [UO126] |  |  |  |  |  |  |  |  |  | sensitization to drug-induced apoptosis [9]: also sensitize the cells
10 | COc1cc([C@@H]2c3cc4c(cc3[C@@H](O[C@@H]3O[C@@H]5CO[C@@H](C)O[C@H]5[C@H](O)[C@H]3O)[C@H]3COC(=O)[C@H]23)OCO4)cc(OC)c1O [VP-16] |  | 1.8 | 145 | 53.0±2.6 | 10.3±1.1 | 2.97 | 167 | 32.0±2.2 | 11.8±0.9 | 
11 | CC(=O)O[C@H]1C(=O)[C@@]2(C)[C@H]([C@H](OC(=O)c3ccccc3)[C@]3(O)C[C@H](OC(=O)[C@H](O)[C@@H](NC(=O)c4ccccc4)c4ccccc4)C(C)=C1C3(C)C)[C@]1(OC(C)=O)CO[C@@H]1C[C@@H]2O [paclitaxel] |  | 1.54 | 136 | 46.5±2.3 | 20.4±3.0 | 1.63 | 139 | 42.0±1.9 | 14.9±3.2 | apoptosis, paclitaxel alone ([1]; wt Ramos, paclitaxel 10 nM 18 h): 13.6±1.3%; apoptosis, paclitaxel alone ([3]; Ramos-RR1, paclitaxel 10 nM 18 h): 8.42±2.1%
12 | CC[C@]1(O)C[C@H]2CN(CCc3c([nH]c4ccccc34)[C@@](C(=O)OC)(c3cc4c(cc3OC)N(C=O)[C@H]3[C@@](O)(C(=O)OC)[C@H](OC(C)=O)[C@]5(CC)C=CCN6CC[C@]43[C@@H]65)C2)C1 [vincristine] |  | 1.42 | 130 | 53.5±2.2 | 15.3±1.1 | 1.66 | 140 | 36.6±2.3 | 14.2±1.7 | 
13 | cross-linked rituximab: 50 μg/ml anti-human immunoglobulin (hIg)+20 μg/ml rituximab |  |  |  |  |  |  |  |  |  | apoptosis ([1]; Ramos wt, 50 μg/ml anti-hIg + 20 μg/ml rituximab, 24 h): 29.2±2.4%; apoptosis ([2]; 50 μg/ml anti-hIg + 20 μg/ml rituximab, 24 h): 32.8±2.1%; higher threshold to cross-linked rituximab-mediated apoptosis vs wt ([3]; Ramos-RR1): 2.86 folds; higher threshold to cross-linked rituximab-mediated apoptosis vs wt ([4]; Daudi-RR1): 2.56 folds
14 | TRAIL: tumor necrosis factor (TNF)-related apoptosis-inducing ligand (protein, UniProt P50591 1-281, looked up) Tumor necrosis factor ligand …: MAMMEVQGGPSLGQTCVLIVIFTVLLQSLCVAVTYVYFTNELKQMQDKYSKSGIACFLKEDDSYWDPNDEESMNSPCWQVKWQLRQLVRKMILRTSEETISTVQEKQQNISPLVRERGPQRVAAHITGTRGRSNTLSSPNSKNEKALGRKINSWESSRSGHSFLSNLHLRNGELVIHEKGFYYIYSQTYFRFQEEIKENTKNDKQMVQYIYKYTSYPDPILLMKSARNSCWSKDAEYGLYSIYQGGIFELKENDRIFVSVTNEHLIDMDHEASFFGAFLVG |  |  |  |  |  |  |  |  |  | sensitivity to TRAIL-mediated apoptosis ([6]; wild type and RR1 cells, TRAIL 1-250 ng/ml, 18 h): resistant
